ChEMBL document CHEMBL4619799, “Mechanistic Insight into Antiretroviral Potency of 2'-Deoxy-2'-β-fluoro-4'-azidocytidine (FNC) with a Long-Lasting Effect on HIV-1 Prevention” (J Med Chem, 2020)
Activity calls are given as the source filed them. The calls are words filed in the database; no cut-off is given here.

Experiments:
[1] = Drug metabolism in human PBMC-derived CD14-positive monocytes assessed as FNC-TP formation at 350 nM measured after 4 hrs by LC-MS/MS analysis; format: ADME; settings: 0.35 µM
[2] = system: Human immunodeficiency virus 1; test: Antiviral activity against HIV1 infected patient assessed as reduction in plasma viremia at 4 mg administered daily for 7 days measured 24 hrs post-last dose by qRT-PCR analysis; format: functional, organism-based
[3] = AUC (0 to 24 hrs) in monkey PBMC assessed as FNC-TP level at 6 mg/kg, po administered as single dose by LC-MS/MS analysis; format: ADME, organism-based, Macaca mulatta; design: dose 6 mg/kg, time < 24 hr, route oral; settings: rhesus monkey, in vivo
[4] = Elimination half life in monkey PBMC assessed as FNC-TP level at 1 mg/kg, po administered as single dose by LC-MS/MS analysis; format: ADME, organism-based, Macaca mulatta; settings: rhesus monkey, in vivo
[5] = system: Human immunodeficiency virus 1; test: Potency index, ratio of lamivudine EC50 to test compound EC50 for antiviral activity against VSVG pseudotyped HIV1 infected in HEK293 cells; format: functional
[6] = target: Virion infectivity factor (Human immunodeficiency virus type 1 group M subtype B (isolate NY5)(HIV-1)) (UniProt P12504); test: Inhibition of HIV1 HA-tagged Vif expressed in HEK293T cells co-expressing Myc-tagged pcDNA-APOBEC3G assessed as reduction in Vif-mediated A3G degradation at 10 nM measured after 48 hrs by Western blot analysis; format: cell-based; settings: Human immunodeficiency virus 1, HEK-293T
Chain of Virion infectivity factor (Human immunodeficiency virus type 1 group M subtype B (isolate NY5)(HIV-1)) (P12504 whole entry): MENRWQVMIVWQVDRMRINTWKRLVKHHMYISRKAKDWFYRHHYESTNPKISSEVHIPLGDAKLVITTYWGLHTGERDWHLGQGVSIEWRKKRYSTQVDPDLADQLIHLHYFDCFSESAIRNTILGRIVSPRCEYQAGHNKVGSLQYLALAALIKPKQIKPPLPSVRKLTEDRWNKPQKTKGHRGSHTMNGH

[7] = Tmax in Sprague-Dawley rat thymus at 0.5 mg/kg, po administered as single dose via gavage by LC-MS/MS analysis; format: ADME, organism-based
[8] = Binding affinity to HIV1 Vif and CBFbeta-ELOB-ELOC complex (unknown origin) assessed as compound-complex adduct formation measured after 150 secs by CM5 chip based assay
[9] = Cmax in monkey PBMC assessed as FNC-TP level at 6 mg/kg, po administered as single dose by LC-MS/MS analysis; format: ADME, organism-based, Macaca mulatta; design: dose 6 mg/kg, route oral; settings: rhesus monkey, in vivo
[10] = Effect on CD69 surface expression in IL2-induced human PBMC-derived CD4-positive T cells at 100 nM measured after 48 hrs by immunostaining based flow cytometry; format: ADME; settings: 0.1 µM
[11] = Ratio of Cmax in monkey plasma at 6 mg/kg, po administered as single dose measured after 1 hr to Cmax in monkey plasma at 6 mg/kg, po administered as single dose measured after 24 hrs; format: ADME, organism-based, Macaca mulatta; settings: rhesus monkey, in vivo
[12] = system: Homo sapiens; test: In vivo inhibition of Vif-induced A3G degradation in HIV1 infected patient assessed as increase in A3G expression in CD4-positive T cells at 4 mg administered daily for 7 days measured 24 hrs post-last dose by Western blot analysis; format: functional, organism-based
[13] = AUC (0 to 24 hrs) in monkey plasma at 1 mg/kg, po administered as single dose by LC-MS/MS analysis; format: ADME, organism-based, Macaca mulatta; design: time < 24 hr, dose 1 mg/kg, route oral; settings: rhesus monkey
[14] = Cytotoxicity against HEK293 cells assessed as cell viability by MTT assay; format: cell-based; settings: human
[15] = AUC (0 to 24 hrs) in monkey at 6 mg/kg, po administered as single dose by LC-MS/MS analysis; format: ADME, organism-based, Macaca mulatta; design: dose 6 mg/kg, time < 24 hr, route oral; settings: rhesus monkey, in vivo
[16] = AUC (0 to 24 hrs) in monkey PBMC assessed as FNC-TP level at 1 mg/kg, po administered as single dose by LC-MS/MS analysis; format: ADME, organism-based, Macaca mulatta; design: time < 24 hr, dose 1 mg/kg, route oral; settings: rhesus monkey, in vivo
[17] = system: Human immunodeficiency virus 1; test: Antiviral activity against JRFL pseudotyped HIV1 infected in human Hut/CCR5 cells assessed as time needed to reach 50% reduction of virus infection at 1 nM incubated with cells for 4 hrs prior to compound washout followed by viral infection and measured after 72 hrs by luciferase reporter gene assay; format: functional
[18] = system: Human immunodeficiency virus 1; test: Antiviral activity against JRFL pseudotyped HIV1 infected in human Hut/CCR5 cells preincubated for 3 hrs followed by compound washout and subsequent compound redosing and measured after 72 hrs by luciferase reporter gene based assay; format: functional, organism-based; settings: Human immunodeficiency virus 1, Hut/CCR5
[19] = target: Virion infectivity factor (Human immunodeficiency virus type 1 group M subtype B (isolate NY5)(HIV-1)) (UniProt P12504); test: Inhibition of HIV1 HA-tagged Vif expressed in HEK293T cells co-expressing eGFP-tagged pcDNA-APOBEC3G assessed as reduction in Vif-mediated A3G degradation at 10 nM measured after 48 hrs by flow cytometry; format: cell-based; settings: Human immunodeficiency virus 1, HEK-293T
[20] = target: Virion infectivity factor (Human immunodeficiency virus type 1 group M subtype B (isolate NY5)(HIV-1)) (UniProt P12504); test: Inhibition of HIV1 HA-tagged Vif expressed in HEK293T cells co-expressing Myc-tagged pcDNA-APOBEC3G and pcDNA-ubiquitin-His assessed as reduction in Vif-mediated A3G polyubiquitination at 3.5 to 35 nM measured after 48 hrs by Western blot analysis; format: cell-based; settings: Human immunodeficiency virus 1, HEK-293T
[21] = Tmax in monkey PBMC assessed as FNC-TP level at 6 mg/kg, po administered as single dose by LC-MS/MS analysis; format: ADME, organism-based, Macaca mulatta; settings: rhesus monkey, in vivo
[22] = Effect on CD25 surface expression in IL2-induced human PBMC-derived CD4-positive T cells at 100 nM measured after 48 hrs by immunostaining based flow cytometry; format: ADME; settings: 0.1 µM
[23] = Tmax in monkey PBMC assessed as FNC-TP level at 1 mg/kg, po administered as single dose by LC-MS/MS analysis; format: ADME, organism-based, Macaca mulatta; settings: rhesus monkey, in vivo
[24] = Drug metabolism in human PBMC-derived CD4-positive T cells assessed as FNC-TP formation at 350 nM measured after 4 hrs by LC-MS/MS analysis; format: ADME; settings: 0.35 µM
[25] = Cmax in monkey plasma at 1 mg/kg, po administered as single dose by LC-MS/MS analysis; format: ADME, organism-based, Macaca mulatta; design: dose 1 mg/kg, route oral; settings: rhesus monkey
[26] = Selectivity index, ratio of CC50 for human Hut/CCR5 cells to EC50 for antiviral activity against JRFL pseudotyped HIV1 infected in human Hut/CCR5 cells; format: toxicity, cell-based; settings: read-out: Ratio CC50/EC50
[27] = system: Human immunodeficiency virus 1; test: Synergistic antiviral activity against JRFL pseudotyped HIV1 infected in human Hut/CCR5 cells assessed as combination index in presence of rilpivirine by luciferase reporter gene based assay; format: functional
[28] = Elimination half life in monkey PBMC assessed as FNC-TP level at 6 mg/kg, po administered as single dose by LC-MS/MS analysis; format: ADME, organism-based, Macaca mulatta; settings: rhesus monkey, in vivo
[29] = system: Human immunodeficiency virus 1; test: Antiviral activity against JRFL pseudotyped HIV1 infected in human Hut/CCR5 cells assessed as time needed to reach 50% reduction of virus infection at 10 nM incubated with cells for 4 hrs prior to compound washout followed by viral infection and measured after 72 hrs by luciferase reporter gene assay; format: functional
[30] = system: Human immunodeficiency virus 1; test: Antiviral activity against JRFL pseudotyped HIV1 infected in human Hut/CCR5 cells assessed as time needed to reach 50% reduction of virus infection at 0.1 nM incubated with cells for 4 hrs prior to compound washout followed by viral infection and measured after 72 hrs by luciferase reporter gene assay; format: functional
[31] = Tmax in monkey plasma at 6 mg/kg, po administered as single dose by LC-MS/MS analysis; format: ADME, organism-based, Macaca mulatta; settings: rhesus monkey
[32] = Effect on HLA-DR surface expression in IL2-induced human PBMC-derived CD4-positive T cells at 100 nM measured after 48 hrs by immunostaining based flow cytometry; format: ADME; settings: 0.1 µM
[33] = system: Human immunodeficiency virus 1; test: Antiviral activity against VSVG pseudotyped HIV1 infected in HEK293 cells preincubated for 3 hrs followed by compound washout and subsequent compound redosing and measured after 72 hrs by luciferase reporter gene based assay; format: functional, organism-based; settings: Human immunodeficiency virus 1, HEK293

For `[N-]=[N+]=N[C@]1(CO)O[C@@H](n2ccc(N)nc2=O)[C@@H](F)[C@@H]1O` [RO-0622], the Drug metabolism [1] was “Metabolite_Detected”, the Activity [2] was “Active” and the AUC [3] was 0.24922 µM·h. The “beta t1/2” value [4] was 133.15 h, the “Ratio EC50” value [5] was 4700 and the inhibition [6] was “Active”. It also gave a Tmax [7] of 7 to 12 h, an Activity [8] of 36% and a Cmax [9] of 4.07 nM. For the same compound, the Activity [10] was “Non-Toxic”, the Ratio [11] was 320 and the inhibition [12] was “Active”. For the same compound, the AUC(0-t) at 24 h [13] was 0.499 µM·h, the CC50 [14] was no less than 25000 nM and the AUC(0-t) at 24 h [15] was 7.58 µM·h. The AUC [16] was 0.09933 µM·h, the Time [17] was 83.14 h and the EC50 [18] was 0.0136 nM. The inhibition [19] was “Active”, the inhibition [20] was “Active” and the Tmax [21] was 6 h. The Activity [22] was “Non-Toxic”, the Tmax [23] was 6 h and the Drug metabolism [24] was “Metabolite_Detected”. The Cmax [25] was 196 nM, the selectivity ratio [26] was 25000 and the CI50 [27] was 0.113. The CI75 [27] was 0.0902, the CI90 [27] was 0.07208 and the CI95 [27] was 0.06194. For the same compound, the “beta t1/2” value [28] was 112.4 h, the Time [29] was 123.06 to 123.1 h and the Time [30] was 68.6 to 68.63 h. For the same compound, the Tmax [31] was 1 h, the Activity [32] was “Non-Toxic” and the EC50 [33] was 0.063 nM.
